The values below come from patent US20160193240A1, “Ulmoside-A: Useful For Prevention Or Cure Of Metabolic Diseases” (COUNCIL OF SCIENTIFIC & INDUSTRIAL RESEARCH, priority 2013, published 2016).

SMILES strings stand for the structures. Marks after values point to notes of the source that are not given here.

The test system of assay [1] is rats. As to conditions: cited from earlier work.
Assay [2] concerns C2C12 myotubes. Description: Western blot of PGC-1α, PPAR and GLUT4 in C2C12 myotubes. The format is cell-based, mouse. As to conditions: 10 nM, 24 or 48 hours. As for the experimental part:
B. ULMA induces protein levels of PGC-1α, PPARα and Glut4. C2C12 myotubes in 10 cm dish were treated with vehicle (DMSO) or 10 nM ULMA in DMSO for 24 or 48 h followed by western blotting with indicated antibodies. Data is representative of three independent experiments showing identical pattern.
Adiponectin enhances transcription of genes regulating fatty acid transport, fatty acid-oxidation and mitochondrial uncoupling proteins in skeletal muscle and myotubes (T. Kadowaki, T. Yamauchi, N. Kubota, K. Hara, K. Ueki, K. Tobe. J Clin Invest. 116(7): 1784-92. 2006; S. Dridi, M. Taouis. Journal of Nutritional Biochemistry 20 (2009): 831-839. 2009; M. Iwabu, T. Yamauchi, M. Okada-Iwabu, K. Sato, T. Nakagawa, M. Funata, M. Yamaguchi, S. Namiki, R. Nakayama, M. Tabata, H. Ogata, N. Kubota, I. Takamoto, Y. K. Hayashi, N. Yamauchi, H. Waki, M. Fukayama, I. Nishino, K. Tokuyama, K. Ueki, Y. Oike, S. Ishii, K. Hirose, T. Shimizu, K. Touhara, T. Kadowaki. Nature; 464(7293):1313-1319. 2010). The ability of ULMA to influence expression of these genes were checked in c2c12 myotubes. C2C12 myotubes in 6 well plates were treated with 10 nM ULMA or vehicle (DMSO) for 12 hours or 24 hours. Following treatment, the cells were washed with ice-cold PBS and RNA was extracted using Trizol (Ambion) according to manufacturer's instructions. The RNAs were quantitated using a spectrophotometer (nanophotometer; Implen GMBH) and 1 μg RNA was used to prepare cDNA using a cDNA synthesis kit (Applied Biosystems). cDNAs were then used for quantitative real-time PCR for indicated genes (FIG. 3A) using Veriquest SYBR green QRT-PCR mastermix (US Biologicals) and a Roche lightcycler 480 thermal cycler (Roche Diagnostics). Beta-actin was used as normalizing control. The relative mRNA level was quantitated using ddCT method. […] Adiponectin is also known to induce muscle and adipose glucose transporter 4 (GLUT4) expressions; and the ability of ULMA to induce the expression of GLUT4, PPAR and PGC-1α was investigated by western blotting. […]

Assay [3] relates to wistar rats. Description: Dexamethasone-mediated imbalance in serum Na, K level in rats. The format is in vivo, rat. As to conditions: Dex + ULMA, 14 days.
Procedure: Food intake was measured daily and the rats were weighed each week. The rats were fasted overnight (O/N) on day 14th and on day 15th oral glucose tolerance test was performed. Following oral glucose tolerance test (OGTT), rats were kept with food and water ad libitum for one day. On day 16th, rats were fasted again O/N and then euthanized. At autopsy, from 5 animals/group, tissues were collected and snap frozen in liquid nitrogen. Blood was collected from cardiac punctures. Plasma was separated from whole blood by centrifugation at 3000 rpm for 20 min immediately after collection of blood and stored at −80° C. until further analysis. Forelimb (quadriceps) skeletal muscles were processed for RNA and protein extraction, followed by quantitative real-time PCR (QRT-PCR) analysis. Two animals from each group were used for photography post autopsy.
In assay [4] the test system is 3T3L-1 mouse pre-adipocyte cells. As to the kind of experiment: Brown adipose marker expression in differentiating 3T3L-1 preadipocytes. It counts as cell-based. The procedure: A. 3T3L-1 mouse preadipocyte cells in 6 well plates were allowed to reach full confluence. Two days following confluence (designated as day 0), the growth medium was replaced with differentiation medium (DM). After two days of incubation in DM, this medium was replaced with insulin medium (Ins) and the cells were incubated in Ins for 2 days and then the insulin medium was replaced with growth medium (GM) and the cells were cultured for a total of 10 days (starting from day 0). The cells were treated with vehicle (0.1% DMSO) or ULMA (10 nM in 0.1% DMSO) on day 0 and the total treatment duration was 10 days. In all cases, medium was replaced with fresh corresponding medium every day containing vehicle (0.1% DMSO) or 10 nM ULMA (in DMSO; final DMSO concentration in all wells 0.1% vol/vol). After a total of 10 days from day 0, cells were washed in cold PBS and RNA was extracted using trizol reagent using standard procedure following which cDNA synthesis was done and UCP-1, UCP-2, PGC-1α and PRDM16 expression were determined using QRT-PCR, normalized with Beta-actin mRNA and plotted as fold induction over vehicle treated control. Data is mean±SEM of three independent experiments performed in triplicates. **p<0.01 as determined by two tailed unpaired student's t-test.
C. Cells from identical set of experiments as described in FIGS. 5A and 5B or human SVFs prepared by collagenase digestions were analyzed by western blot analysis for determination of UCP-1, UCP-2 and PGC-1α protein level. Beta-actin was used as a loading control. Data is representative of three independent experiments.
Adiponectin has previously been described to enhance mitochondrial function in adipose tissues and induces its thermogenic potential and therefore causes a conversion towards brown adipose phenotype characterized by an increase in UCPs, in particular UCP-1 (I. B. Bauche, S. A. E. Mkadem, A-M. Pottier, M. Senou, M-C. Many, R. Rersohazy, L. Penicaud, N. Maeda; T. Funahashi, S. M. Brichard. Endocrinology 148(4):1539-1549. 2007). Therefore, the ability of ULMA to induce UCP-1 and 2 in different stages of adipocyte differentiation was checked. We also checked other brown adipose markers such as PGC-1α and PR domain containing 16 (PRDM16). 3T3L-1 mouse pre-adipocyte cells (ATCC, CL-173) maintained in growth medium (DMEM with 4.5 mg/ml glucose, 4.0 mM glutamine, 1 mM sodium pyruvate, 10% FBS and 1× antibiotic-antimycotic solution (all reagents from invitrogen)) were plated in 6 well plates and allowed to reach full confluence. […] After two days of incubation in differentiation medium, this medium was replaced with insulin medium (DMEM, 10% FBS, plus 1.5 μg/ml insulin) and the cells were incubated in insulin medium for 2 days and then the insulin medium was replaced with growth medium and the cells were then cultured for total of 10 days (from day 0). For ULMA treatment, the cells were treated on day 0 (the day on which differentiation medium was added), and the treatment was continued for a total of 10 days. In all cases, medium was replaced with fresh medium containing vehicle (0.1% DMSO) or 10 nM ULMA every day. After 10 days from day 0, cells were washed in cold PBS and RNA was extracted using trizol reagent using standard procedure following which cDNA synthesis was done and transcript expression was determined using QRT-PCR as described above.
For western blot-based determination of UCP-1, UCP-2 and PGC-1α protein level, cells from an identical set of experiment were lysed and western blotted with UCP-1, UCP-2 (Abcam), PGC-1α(Calbiochem), or beta-actin (cell signaling technology; used as a loading control) as described above.

Setting [5] is: 10 nM, 10 days of differentiation.
[6] abbreviates: differentiated in presence of ULMA, 10 days.

In the case of `O=C1c2c(cc(O)c([C@@H]3O[C@H](CO)[C@@H](O)[C@H](O)[C@H]3O)c2O)O[C@@H](c2ccc(O)c(O)c2)[C@@H]1O` [ULMA, (2S,3S)-(+)-3′,4′,5,7-tetrahydroxydihydroflavonol-6-C-β-D-glucopyranoside], in assay [1], the “effect on ovariectomy-induced osteoporosis” value is “mitigated ovariectomy-induced osteoporosis”. In assay [2], the GLUT4 protein level result is reported as “induced protein levels”, the PGC-1α protein level entry is “induced protein levels” and the PPAR protein level result is “induced protein levels”. Further, in assay [3], the “Na (mmol/l)” value was 124 ± 3.7^a mmol/l and the serum K came out at 3.93 ± 0.08 mM. Further, in assay [4] (setting [5]), the “PGC-1α mRNA level” value is listed as “significant increase”, the “PRDM16 mRNA level” value is recorded as “significant increase”, the “UCP-1 mRNA level” value is given as “significant increase” and the “UCP-2 mRNA level” value was “significant increase”. For the same molecule, in assay [4] (setting [6]), the PGC-1α protein level result is given as “elevated” and the UCPs protein level entry was “elevated”.
